Read-outs that look alike come from different tables or passages of the source.
Assays:
Format in all cases: cell-based
SARS-CoV-2 variant Alpha [1] = experiment: microbe, parasite or virus in culture; conditions: for EC50: read-out: Antiviral Activity Against SARS-CoV-2 Variants in Vero EC50, Alpha; for EC90: read-out: Antiviral Activity Against SARS-CoV-2 Variants in Vero EC90, Alpha
SARS-CoV-2 variant Beta [2] = experiment: microbe, parasite or virus in culture; conditions: for EC50: read-out: Antiviral Activity Against SARS-CoV-2 Variants in Vero EC50, Beta; for EC90: read-out: Antiviral Activity Against SARS-CoV-2 Variants in Vero EC90, Beta
SARS-CoV-2 variant Gamma [3] = experiment: microbe, parasite or virus in culture; conditions: for EC50: read-out: Antiviral Activity Against SARS-CoV-2 Variants in Vero EC50, Gamma; for EC90: read-out: Antiviral Activity Against SARS-CoV-2 Variants in Vero EC90, Gamma
[4] = tested on: SARS-CoV-2 Lineage A (Eng); experiment: Antiviral activity against SARS-CoV-2 Lineage A (Eng) in Vero; conditions: for EC50: read-out: Antiviral Activity Against SARS-CoV-2 Variants in Vero EC50, Lineage A (Eng); for EC90: read-out: Antiviral Activity Against SARS-CoV-2 Variants in Vero EC90, Lineage A (Eng)
[5] = tested on: SARS-CoV-2 Lineage A (Wa); experiment: Antiviral activity against SARS-CoV-2 Lineage A (Wa) in Vero; conditions: read-out: Antiviral Activity Against SARS-CoV-2 Variants in Vero EC50, Lineage A (Wa)
SARS-CoV-2 variant Alpha [6] = experiment: microbe, parasite or virus in culture
SARS-CoV-2 variant Beta [7] = experiment: microbe, parasite or virus in culture; conditions: Severe acute respiratory syndrome coronavirus 2, Calu-3, read-out: Antiviral Activity Against SARS-CoV-2 Variants in Calu3 EC50, Beta
SARS-CoV-2 variant Gamma [8] = experiment: microbe, parasite or virus in culture
SARS-CoV-2 variant Delta = experiment: microbe, parasite or virus in culture
[9] = tested on: SARS-CoV-2 Lineage A (Eng); experiment: Antiviral activity against SARS-CoV-2 Lineage A (Eng) in Calu3
[10] = tested on: SARS-CoV-2 Lineage A (Wa); experiment: Antiviral activity against SARS-CoV-2 Lineage A (Wa) in Calu3
[11] = Severe acute respiratory syndrome coronavirus 2, Vero
[12] = Severe acute respiratory syndrome coronavirus 2, Alpha, Vero
[13] = Severe acute respiratory syndrome coronavirus 2, Beta, Vero
[14] = Severe acute respiratory syndrome coronavirus 2, Gamma, Vero
[15] = Severe acute respiratory syndrome coronavirus 2, Lineage A (Eng), Vero

Molecule `O=c1ccn([C@@H]2S[C@H](CO)[C@@H](O)[C@H]2O)c(=O)[nH]1` [Compound 8, 1-((2R,3R,4S,5R)-3,4-dihydroxy-5-(hydroxymethyl)tetrahydrothiophen-2-yl)pyrimidine-2,4(1H,3H)-dione] has an EC50 (SARS-CoV-2 variant Alpha [1]; [11]) of 300 nM, an EC90 (SARS-CoV-2 variant Alpha [1]; [11]) of 1400 nM and an EC50 (SARS-CoV-2 variant Beta [2]; [11]) of 800 nM. For the same molecule, the EC90 (SARS-CoV-2 variant Beta [2]; [11]) was 1000 nM, the EC50 (SARS-CoV-2 variant Gamma [3]; [11]) was 200 nM and the EC90 (SARS-CoV-2 variant Gamma [3]; [11]) was 300 nM. The EC50 [4, 11] was 200 nM, the EC90 [4, 11] was 400 nM and the EC50 [5, 11] was 800 nM. It also gave an EC50 (SARS-CoV-2 variant Alpha [6]; Severe acute respiratory syndrome coronavirus 2, Calu-3, read-out: Antiviral Activity Against SARS-CoV-2 Variants in Calu3 EC50, Alpha) of 300 nM, an EC50 (SARS-CoV-2 variant Beta [7]) of 1100 nM and an EC50 (SARS-CoV-2 variant Gamma [8]; Severe acute respiratory syndrome coronavirus 2, Calu-3, read-out: Antiviral Activity Against SARS-CoV-2 Variants in Calu3 EC50, Gamma) of 40 nM. The EC90 (SARS-CoV-2 variant Gamma [8]; Severe acute respiratory syndrome coronavirus 2, Calu-3, read-out: Antiviral Activity Against SARS-CoV-2 Variants in Calu3 EC90, Gamma) was 100 nM, the EC50 (SARS-CoV-2 variant Delta; Severe acute respiratory syndrome coronavirus 2, Calu-3, read-out: Antiviral Activity Against SARS-CoV-2 Variants in Calu3 EC50, Delta) was 1800 nM and the EC90 (SARS-CoV-2 variant Delta; Severe acute respiratory syndrome coronavirus 2, Calu-3, read-out: Antiviral Activity Against SARS-CoV-2 Variants in Calu3 EC90, Delta) was 3600 nM. The EC90 ([9]; Severe acute respiratory syndrome coronavirus 2, Calu-3, read-out: Antiviral Activity Against SARS-CoV-2 Variants in Calu3 EC90, Lineage A (Eng)) was 4500 nM, the EC50 ([10]; Severe acute respiratory syndrome coronavirus 2, Calu-3, read-out: Antiviral Activity Against SARS-CoV-2 Variants in Calu3 EC50, Lineage A (Wa)) was 100 nM and the EC90 ([10]; Severe acute respiratory syndrome coronavirus 2, Calu-3, read-out: Antiviral Activity Against SARS-CoV-2 Variants in Calu3 EC90, Lineage A (Wa)) was 400 nM.
With `CCC(CC)COC(=O)[C@H](C)N[P@](=O)(OC[C@H]1O[C@@](C#N)(c2ccc3c(N)ncnn23)[C@H](O)[C@@H]1O)Oc1ccccc1` [Remdesivir, reference compound] the EC50 (SARS-CoV-2 variant Alpha [1]; [12]) was 400 nM, the EC90 (SARS-CoV-2 variant Alpha [1]; [12]) was 1600 nM and the EC50 (SARS-CoV-2 variant Beta [2]; [13]) was 1100 nM. The EC90 (SARS-CoV-2 variant Beta [2]; [13]) was 2200 nM, the EC50 (SARS-CoV-2 variant Gamma [3]; [14]) was 300 nM and the EC90 (SARS-CoV-2 variant Gamma [3]; [14]) was 2100 nM. For the same molecule, the EC50 [4, 15] was 300 nM, the EC90 [4, 15] was 2900 nM and the EC50 ([5]; Severe acute respiratory syndrome coronavirus 2, Lineage A (Wa), Vero) was 200 nM. It also gave an EC50 (SARS-CoV-2 variant Alpha [6]; Severe acute respiratory syndrome coronavirus 2, Calu-3, Alpha, Calu3, read-out: Antiviral Activity Against SARS-CoV-2 Variants in Calu3 EC50, Alpha) of 300 nM, an EC90 (SARS-CoV-2 variant Alpha [6]; Severe acute respiratory syndrome coronavirus 2, Calu-3, Alpha, Calu3, read-out: Antiviral Activity Against SARS-CoV-2 Variants in Calu3 EC90, Alpha) of 400 nM and an EC50 (SARS-CoV-2 variant Gamma [8]; Severe acute respiratory syndrome coronavirus 2, Calu-3, Gamma, Calu3, read-out: Antiviral Activity Against SARS-CoV-2 Variants in Calu3 EC50, Gamma) of 260 nM. The EC90 (SARS-CoV-2 variant Gamma [8]; Severe acute respiratory syndrome coronavirus 2, Calu-3, Gamma, Calu3, read-out: Antiviral Activity Against SARS-CoV-2 Variants in Calu3 EC90, Gamma) was 300 nM, the EC50 (SARS-CoV-2 variant Delta; Severe acute respiratory syndrome coronavirus 2, Calu-3, Delta, Calu3, read-out: Antiviral Activity Against SARS-CoV-2 Variants in Calu3 EC50, Delta) was 300 nM and the EC90 (SARS-CoV-2 variant Delta; Severe acute respiratory syndrome coronavirus 2, Calu-3, Delta, Calu3, read-out: Antiviral Activity Against SARS-CoV-2 Variants in Calu3 EC90, Delta) was 2300 nM. The EC50 ([9]; Severe acute respiratory syndrome coronavirus 2, Calu-3, Lineage A (Eng), Calu3, read-out: Antiviral Activity Against SARS-CoV-2 Variants in Calu3 EC50, Lineage A (Eng)) was 20 nM, the EC90 ([9]; Severe acute respiratory syndrome coronavirus 2, Calu-3, Lineage A (Eng), Calu3, read-out: Antiviral Activity Against SARS-CoV-2 Variants in Calu3 EC90, Lineage A (Eng)) was 300 nM and the EC50 ([10]; Severe acute respiratory syndrome coronavirus 2, Calu-3, Lineage A (Wa), Calu3, read-out: Antiviral Activity Against SARS-CoV-2 Variants in Calu3 EC50, Lineage A (Wa)) was 100 nM. It also gave an EC90 ([10]; Severe acute respiratory syndrome coronavirus 2, Calu-3, Lineage A (Wa), Calu3, read-out: Antiviral Activity Against SARS-CoV-2 Variants in Calu3 EC90, Lineage A (Wa)) of 400 nM.
